Experimental data published in ChEMBL document CHEMBL5653615 (J Biol Chem, 2013).

Legend:
[1] = biological target: T1, Serine/threonine-protein kinase BRSK1 (Homo sapiens) (UniProt Q8TDC3); assay: Inhibition of human BRSK1 at 500 nM by HotSpot assay relative to control
T1 sequence (whole entry): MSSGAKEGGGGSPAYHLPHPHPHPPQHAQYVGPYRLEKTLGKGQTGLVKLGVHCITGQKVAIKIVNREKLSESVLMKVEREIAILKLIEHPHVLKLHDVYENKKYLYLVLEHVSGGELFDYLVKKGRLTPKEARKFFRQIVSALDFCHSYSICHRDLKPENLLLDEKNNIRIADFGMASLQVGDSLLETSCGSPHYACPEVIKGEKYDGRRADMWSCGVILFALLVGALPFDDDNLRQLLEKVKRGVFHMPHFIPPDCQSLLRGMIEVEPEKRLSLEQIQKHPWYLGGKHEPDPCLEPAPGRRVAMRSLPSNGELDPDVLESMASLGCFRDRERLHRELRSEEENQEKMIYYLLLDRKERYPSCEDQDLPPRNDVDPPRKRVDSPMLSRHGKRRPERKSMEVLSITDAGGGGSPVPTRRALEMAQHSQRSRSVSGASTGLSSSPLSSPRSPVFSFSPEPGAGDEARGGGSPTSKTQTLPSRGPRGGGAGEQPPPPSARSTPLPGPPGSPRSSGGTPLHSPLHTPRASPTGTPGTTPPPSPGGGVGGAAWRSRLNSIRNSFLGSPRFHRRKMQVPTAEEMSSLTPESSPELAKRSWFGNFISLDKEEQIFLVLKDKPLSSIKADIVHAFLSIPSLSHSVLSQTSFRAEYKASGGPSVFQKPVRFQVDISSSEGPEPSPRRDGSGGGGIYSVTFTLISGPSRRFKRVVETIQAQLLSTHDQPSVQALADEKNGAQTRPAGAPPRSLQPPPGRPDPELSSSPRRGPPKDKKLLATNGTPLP

[2] = biological target: Calcium/calmodulin-dependent protein kinase type 1B (Homo sapiens) (UniProt Q6P2M8); assay: Inhibition of human CAMK1b at 500 nM by HotSpot assay relative to control
[3] = biological target: Calcium/calmodulin-dependent protein kinase type II subunit beta (Homo sapiens) (UniProt Q13554); assay: Inhibition of human CAMK2b at 500 nM by HotSpot assay relative to control
[4] = biological target: T2, Calcium/calmodulin-dependent protein kinase type IV (Homo sapiens) (UniProt Q16566); assay: Inhibition of human CAMK4 at 500 nM by HotSpot assay relative to control
T2 sequence (whole entry): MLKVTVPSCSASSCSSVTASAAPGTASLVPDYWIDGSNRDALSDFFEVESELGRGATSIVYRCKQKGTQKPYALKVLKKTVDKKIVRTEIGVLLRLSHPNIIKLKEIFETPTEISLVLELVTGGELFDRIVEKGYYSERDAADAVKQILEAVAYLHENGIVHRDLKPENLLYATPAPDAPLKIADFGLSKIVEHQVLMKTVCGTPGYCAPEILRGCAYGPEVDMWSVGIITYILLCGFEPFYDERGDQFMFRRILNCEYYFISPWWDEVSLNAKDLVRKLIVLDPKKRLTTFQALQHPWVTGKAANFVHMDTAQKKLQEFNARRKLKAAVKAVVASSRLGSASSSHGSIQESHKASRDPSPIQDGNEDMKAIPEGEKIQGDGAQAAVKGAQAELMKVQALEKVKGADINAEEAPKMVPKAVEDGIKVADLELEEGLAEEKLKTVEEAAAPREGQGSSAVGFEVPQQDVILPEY

[5] = biological target: T3, Mitogen-activated protein kinase kinase kinase kinase 2 (Homo sapiens) (UniProt Q12851); assay: Inhibition of human GCK at 500 nM by HotSpot assay relative to control
T3 sequence (whole entry): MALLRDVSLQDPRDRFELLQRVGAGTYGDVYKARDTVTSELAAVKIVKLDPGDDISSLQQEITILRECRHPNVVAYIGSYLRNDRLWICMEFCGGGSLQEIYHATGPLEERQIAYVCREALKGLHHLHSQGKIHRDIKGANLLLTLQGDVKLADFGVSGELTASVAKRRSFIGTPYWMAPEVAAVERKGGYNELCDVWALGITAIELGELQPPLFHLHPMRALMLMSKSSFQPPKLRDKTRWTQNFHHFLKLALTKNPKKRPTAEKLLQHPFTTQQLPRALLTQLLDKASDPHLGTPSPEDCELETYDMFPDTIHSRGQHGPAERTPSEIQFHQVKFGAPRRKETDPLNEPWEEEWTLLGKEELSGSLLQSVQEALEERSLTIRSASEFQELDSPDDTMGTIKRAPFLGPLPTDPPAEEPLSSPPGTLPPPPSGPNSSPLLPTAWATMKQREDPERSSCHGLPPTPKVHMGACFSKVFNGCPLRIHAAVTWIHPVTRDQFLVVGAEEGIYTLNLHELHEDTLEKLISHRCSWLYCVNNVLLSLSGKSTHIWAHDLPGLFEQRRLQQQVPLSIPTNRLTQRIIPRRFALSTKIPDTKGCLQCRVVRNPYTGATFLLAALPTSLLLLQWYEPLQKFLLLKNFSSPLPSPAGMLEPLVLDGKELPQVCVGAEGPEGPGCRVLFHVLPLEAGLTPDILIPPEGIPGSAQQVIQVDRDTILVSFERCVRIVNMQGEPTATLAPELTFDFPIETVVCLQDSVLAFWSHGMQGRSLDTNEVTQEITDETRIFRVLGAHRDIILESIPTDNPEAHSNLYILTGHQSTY

[6] = biological target: Tyrosine-protein kinase HCK (Homo sapiens) (UniProt P08631); assay: Inhibition of human HCK at 500 nM by HotSpot assay relative to control
[7] = biological target: Serine/threonine-protein kinase MARK1 (Homo sapiens) (UniProt Q9P0L2); assay: Inhibition of human MARK1 at 500 nM by HotSpot assay relative to control
[8] = biological target: SRSF protein kinase 3 (Homo sapiens) (UniProt Q9UPE1); assay: Inhibition of human STK23 at 500 nM by HotSpot assay relative to control
[9] = biological target: T4, Serine/threonine-protein kinase 4 (Homo sapiens) (UniProt Q13043); assay: Inhibition of human STK4 at 500 nM by HotSpot assay relative to control
T4 sequence (whole entry): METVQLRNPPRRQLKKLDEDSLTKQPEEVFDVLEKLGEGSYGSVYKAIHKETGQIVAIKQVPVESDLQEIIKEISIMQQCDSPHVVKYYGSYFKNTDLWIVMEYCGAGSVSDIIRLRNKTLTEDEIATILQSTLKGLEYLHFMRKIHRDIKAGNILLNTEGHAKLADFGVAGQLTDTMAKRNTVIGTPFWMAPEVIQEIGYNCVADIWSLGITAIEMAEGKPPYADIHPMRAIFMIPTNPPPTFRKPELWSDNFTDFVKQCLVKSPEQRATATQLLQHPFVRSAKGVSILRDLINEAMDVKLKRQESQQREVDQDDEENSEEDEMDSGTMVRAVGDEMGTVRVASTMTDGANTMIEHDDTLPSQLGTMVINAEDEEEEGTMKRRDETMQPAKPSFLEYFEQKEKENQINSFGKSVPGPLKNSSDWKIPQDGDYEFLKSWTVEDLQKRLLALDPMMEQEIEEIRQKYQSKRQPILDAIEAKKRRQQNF

Chain of SRSF protein kinase 3 (Homo sapiens) (Q9UPE1 whole entry): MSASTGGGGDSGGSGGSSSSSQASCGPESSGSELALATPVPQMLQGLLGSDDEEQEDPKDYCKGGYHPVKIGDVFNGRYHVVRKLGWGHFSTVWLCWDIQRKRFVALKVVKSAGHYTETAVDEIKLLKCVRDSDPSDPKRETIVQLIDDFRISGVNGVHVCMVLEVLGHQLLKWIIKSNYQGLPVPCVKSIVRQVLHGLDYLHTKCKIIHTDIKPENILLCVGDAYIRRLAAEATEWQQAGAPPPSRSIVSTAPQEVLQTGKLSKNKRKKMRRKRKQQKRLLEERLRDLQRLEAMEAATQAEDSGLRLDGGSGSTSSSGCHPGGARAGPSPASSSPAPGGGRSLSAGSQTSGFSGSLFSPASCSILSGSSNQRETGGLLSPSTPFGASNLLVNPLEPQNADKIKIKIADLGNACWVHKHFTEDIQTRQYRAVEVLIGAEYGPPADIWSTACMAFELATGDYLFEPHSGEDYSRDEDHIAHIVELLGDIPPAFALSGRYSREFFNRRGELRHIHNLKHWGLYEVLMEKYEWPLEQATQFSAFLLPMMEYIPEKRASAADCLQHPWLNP
Chain of Tyrosine-protein kinase HCK (Homo sapiens) (P08631 2-526 limits assumed): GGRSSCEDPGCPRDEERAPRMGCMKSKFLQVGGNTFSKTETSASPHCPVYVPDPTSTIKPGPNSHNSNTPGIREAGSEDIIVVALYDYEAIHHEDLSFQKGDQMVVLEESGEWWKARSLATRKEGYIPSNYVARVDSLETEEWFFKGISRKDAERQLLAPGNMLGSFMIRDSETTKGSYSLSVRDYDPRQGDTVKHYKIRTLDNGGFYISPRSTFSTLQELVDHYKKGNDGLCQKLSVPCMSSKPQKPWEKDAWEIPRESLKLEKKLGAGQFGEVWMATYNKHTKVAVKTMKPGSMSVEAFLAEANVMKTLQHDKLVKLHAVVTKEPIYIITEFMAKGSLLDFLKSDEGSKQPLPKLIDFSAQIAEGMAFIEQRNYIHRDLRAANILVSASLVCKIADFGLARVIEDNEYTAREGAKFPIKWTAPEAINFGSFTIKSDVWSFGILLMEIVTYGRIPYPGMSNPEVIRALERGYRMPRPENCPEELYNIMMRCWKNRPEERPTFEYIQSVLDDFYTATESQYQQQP
Chain of Calcium/calmodulin-dependent protein kinase type 1B (Homo sapiens) (Q6P2M8 whole entry): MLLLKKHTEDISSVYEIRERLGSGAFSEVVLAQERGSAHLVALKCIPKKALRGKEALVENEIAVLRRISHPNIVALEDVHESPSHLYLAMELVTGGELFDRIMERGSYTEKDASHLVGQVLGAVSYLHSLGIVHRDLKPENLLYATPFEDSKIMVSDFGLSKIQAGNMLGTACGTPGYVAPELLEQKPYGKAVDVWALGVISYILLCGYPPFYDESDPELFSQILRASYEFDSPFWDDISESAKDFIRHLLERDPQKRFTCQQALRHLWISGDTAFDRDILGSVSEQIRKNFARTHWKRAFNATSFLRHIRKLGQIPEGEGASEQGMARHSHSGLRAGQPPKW
Chain of Calcium/calmodulin-dependent protein kinase type II subunit beta (Homo sapiens) (Q13554 whole entry): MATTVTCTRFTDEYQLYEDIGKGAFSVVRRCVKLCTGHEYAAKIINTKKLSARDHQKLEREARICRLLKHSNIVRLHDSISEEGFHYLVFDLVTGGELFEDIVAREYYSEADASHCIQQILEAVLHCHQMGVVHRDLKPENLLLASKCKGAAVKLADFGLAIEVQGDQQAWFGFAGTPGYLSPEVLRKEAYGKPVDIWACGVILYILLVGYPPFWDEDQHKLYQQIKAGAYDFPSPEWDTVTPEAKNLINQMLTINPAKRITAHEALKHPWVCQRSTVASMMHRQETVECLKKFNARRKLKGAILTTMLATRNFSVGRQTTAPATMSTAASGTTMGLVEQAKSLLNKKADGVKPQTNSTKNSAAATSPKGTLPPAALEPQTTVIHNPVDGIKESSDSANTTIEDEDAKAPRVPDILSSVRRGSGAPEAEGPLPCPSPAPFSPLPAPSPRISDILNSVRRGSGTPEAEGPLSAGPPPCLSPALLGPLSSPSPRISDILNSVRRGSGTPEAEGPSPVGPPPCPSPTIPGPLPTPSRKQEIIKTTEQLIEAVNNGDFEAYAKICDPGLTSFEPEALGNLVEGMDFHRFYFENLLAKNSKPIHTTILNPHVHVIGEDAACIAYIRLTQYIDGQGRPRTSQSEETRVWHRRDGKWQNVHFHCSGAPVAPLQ
Chain of Serine/threonine-protein kinase MARK1 (Homo sapiens) (Q9P0L2 whole entry, looked up): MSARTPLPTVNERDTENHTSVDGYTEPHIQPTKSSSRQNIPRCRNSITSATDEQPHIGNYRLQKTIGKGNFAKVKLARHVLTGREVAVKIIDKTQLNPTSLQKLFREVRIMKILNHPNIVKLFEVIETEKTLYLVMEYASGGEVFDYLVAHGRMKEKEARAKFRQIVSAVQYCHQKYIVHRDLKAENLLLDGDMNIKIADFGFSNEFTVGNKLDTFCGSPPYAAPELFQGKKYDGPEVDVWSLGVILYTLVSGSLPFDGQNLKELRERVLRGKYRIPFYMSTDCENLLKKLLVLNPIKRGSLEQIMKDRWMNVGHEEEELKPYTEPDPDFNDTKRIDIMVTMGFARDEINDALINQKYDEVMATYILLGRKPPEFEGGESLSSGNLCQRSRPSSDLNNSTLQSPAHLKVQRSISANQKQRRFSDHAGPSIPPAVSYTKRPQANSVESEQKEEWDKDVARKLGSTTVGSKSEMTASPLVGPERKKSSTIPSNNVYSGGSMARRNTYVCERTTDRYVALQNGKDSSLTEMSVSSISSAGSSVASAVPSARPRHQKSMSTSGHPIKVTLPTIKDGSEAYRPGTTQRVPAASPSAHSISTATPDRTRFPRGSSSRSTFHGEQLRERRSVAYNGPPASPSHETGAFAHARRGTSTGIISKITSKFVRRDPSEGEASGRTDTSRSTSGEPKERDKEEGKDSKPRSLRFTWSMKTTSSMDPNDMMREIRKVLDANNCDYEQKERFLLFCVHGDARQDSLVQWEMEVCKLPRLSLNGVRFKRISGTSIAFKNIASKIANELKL

Row | SMILES | inhibition [1] | inhibition [2] | inhibition [3] | inhibition [4] | inhibition [5] | inhibition [6] | inhibition [7] | inhibition [8] | inhibition [9]
1 | Oc1n[nH]c2nnc(-c3c(-c4ccccc4)nn4ccccc34)cc12 | -2.29% | -0.91% | -1.77% | 0.79% | -5.76% | 7.7% | 4.47% | 0.76% | -0.48%
2 | Nc1n[nH]c2nnc(-c3c(-c4ccccc4)nn4ccccc34)cc12 | 1.41% | 0.39% | -2.4% | 5.76% | 1.42% | 8.92% | 2.04% | 11.2% | 0.86%
